One assay relates to monoarthritis. Put plainly: Monoarthritis chronic pain model (complete Freund's adjuvant), paw pressure test. It counts as in vivo, Sprague-Dawley rats. The settings on record: PTX administered for 10 days, effect up to 21 days. Here is the method:
Sprague-Dawley rats weighing approximately 100 g were used. This model was described by Butler (Butler et al, 1992). He was inoculated into the right paw (tibio-tarsal fourth) of rats with 50 uL of complete Freund's adjuvant containing 300 ug Mycobacterium butiricum. This injection produces a localized arthritis syndrome and found to be stable between four and six post-inoculation, weeks During this period there is an establishment of neurogenic pain and hyperalgesia, and this pain is held for more than two months period. Control rats were injected with the vehicle only Mycobacterium butiricum.
All doses of nanoparticles or free drugs were administered by intrathecal (it) in a maximum volume of […], dissolved in artificial cerebrospinal fluid (LCA: 1.3 mm CaCl2, KCl 2.8 mm, 0.9 mm MgCl2, NaHCO3 20 mM, 2.5 mM Na 2 HPO 7H2O, 125 mM NaCl). The injection i.t. it involves administration of the drug into the subarachnoid space between lumbar vertebrae L5 and L6 (Mestre et al, 1994) using a Hamilton syringe with a needle 26Gx1/2”. The entrance to the subarachnoid space evidenced by a slight movement in the tail of the rat, due to the mechanical stimulation of the needle to penetrate the spinal cord meninges. […]

Assay [1] relates to primary cultures of activated microglia. The note with it: LPS-activated microglia treated with propentofylline; cited from earlier work.

These results are taken from patent US20150283095A1, “NANOPARTICLES WITH BIODEGRADABLE AND BIOCOMPATIBLE POLYMER PLGA, LOADED WITH THE DRUG FOR HUMAN USE PENTOXIFYLLINE” (UNIVERSIDAD DE SANTIAGO DE CHILE, priority 2012, published 2015).

For `CC(=O)CCCCn1c(=O)c2c(ncn2C)n(C)c1=O` [PTX, 3,7-dimethyl-1-(5-oxo-hexyl)xanthine], the “effect on threshold of pain, pressure test of the leg” value in the assay with monoarthritis is listed as “lowers the threshold of pain”.
As for `CCCn1cnc2c1c(=O)n(CCCCC(C)=O)c(=O)n2C` [propentofylline, 3-methyl-1-(5-oxo-hexyl)-7-propylxanthine], in assay [1], the “production of tumor necrosis factor (TNF), IL-1β and radicals oxygen” value is listed as “inhibition”.
